Data taken from patent US8703437B2, “Fluorogenic sensors for phospholipase C isozymes” (The University of North Carolina at Chapel Hill, priority 2010, dated 2014).

Biological target: T1, PLC-γ1 (Homo sapiens, UniProt P19174)
T1 construct: addition of 4 ng of purified full-length wild-type PLC-γ1; made in house; host or cells: insect cells
T1 sequence (P19174 1-1290): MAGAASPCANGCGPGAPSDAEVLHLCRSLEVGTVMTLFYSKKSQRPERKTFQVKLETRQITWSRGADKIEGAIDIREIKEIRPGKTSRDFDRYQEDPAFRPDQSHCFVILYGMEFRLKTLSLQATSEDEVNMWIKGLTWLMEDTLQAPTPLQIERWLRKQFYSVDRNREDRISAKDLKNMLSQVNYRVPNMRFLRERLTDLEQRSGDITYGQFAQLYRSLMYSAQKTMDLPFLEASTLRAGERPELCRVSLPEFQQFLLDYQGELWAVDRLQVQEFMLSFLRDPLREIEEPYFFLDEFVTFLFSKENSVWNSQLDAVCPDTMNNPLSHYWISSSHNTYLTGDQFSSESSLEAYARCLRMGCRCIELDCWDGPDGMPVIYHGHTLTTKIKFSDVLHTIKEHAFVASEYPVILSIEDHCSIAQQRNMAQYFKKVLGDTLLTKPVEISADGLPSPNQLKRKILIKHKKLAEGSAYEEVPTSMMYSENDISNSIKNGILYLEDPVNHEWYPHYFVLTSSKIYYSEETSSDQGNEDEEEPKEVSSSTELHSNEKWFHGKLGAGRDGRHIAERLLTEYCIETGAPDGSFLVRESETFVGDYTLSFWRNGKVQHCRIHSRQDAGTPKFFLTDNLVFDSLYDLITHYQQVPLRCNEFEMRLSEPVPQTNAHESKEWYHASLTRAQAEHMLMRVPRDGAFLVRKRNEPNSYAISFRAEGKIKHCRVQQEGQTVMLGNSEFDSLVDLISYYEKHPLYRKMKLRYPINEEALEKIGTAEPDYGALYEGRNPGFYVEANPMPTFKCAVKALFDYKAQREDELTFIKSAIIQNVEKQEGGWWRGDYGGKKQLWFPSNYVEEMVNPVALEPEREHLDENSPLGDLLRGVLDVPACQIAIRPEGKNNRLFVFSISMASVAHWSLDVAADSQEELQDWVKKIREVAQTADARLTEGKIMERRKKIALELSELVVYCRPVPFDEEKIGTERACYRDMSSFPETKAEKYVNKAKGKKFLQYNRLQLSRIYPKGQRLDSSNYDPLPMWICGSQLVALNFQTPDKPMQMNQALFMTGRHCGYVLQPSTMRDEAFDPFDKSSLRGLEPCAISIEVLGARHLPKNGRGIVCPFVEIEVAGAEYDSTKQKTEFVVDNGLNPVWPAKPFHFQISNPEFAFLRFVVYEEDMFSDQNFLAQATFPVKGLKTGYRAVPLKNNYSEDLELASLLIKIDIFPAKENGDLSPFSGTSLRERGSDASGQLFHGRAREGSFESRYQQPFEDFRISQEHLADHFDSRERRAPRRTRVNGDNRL
Assay: Kinetic studies with PLC-γ1
Assay type: biochemical
Details: endogenous substrate PIP2, [3H]PtdIns-(4,5)P2, liquid scintillation counting, 30° C.
Description: For comparison, the endogenous substrate, PIP2, was also applied in the enzymatic reaction under similar conditions.
The assays were started by the addition of 4 ng of purified full-length wild-type PLC-γ1. The reaction mixtures were then incubated at 30° C., and fluorescence was measured continuously as described above. For kinetic studies with the endogenous PIP2, a mixture of PtdIns-(4,5)P2 (300 μM, Avanti Polar Lipids) and ˜10,000 cpm of [^3H]PtdIns-(4,5)P2 was dried under a stream of nitrogen and resuspended in 0.5% cholate. The resulting lipid stock was diluted to obtain final assay conditions with either 280, 160, 80, 24, or 8 μM PtdIns(4,5)P2 in the same buffer as described above in a final volume of 60 μL. Assays were initiated by the addition of 17 ng of purified full-length wild-type PLC-γ1. After incubation at 30° C. at time intervals between 0-8 min, reactions were stopped by the addition of 200 μL of 10% (v/v) trichloroacetic acid (TCA) and 100 μL of 10 mg/mL BSA to precipitate uncleaved lipids and protein. Centrifugation of the reaction mixture isolated soluble [^3H]Ins(1,4,5)P3, which was quantified using liquid scintillation counting.

Km: 28 ± 2.6 µM
Vmax: 2.7 ± 0.07 pmol/min/ng
Substance: phosphatidylinositol 4,5-bisphosphate [PIP2]
